From US9540615B2, “Combined chemical and genetic approaches for generation of induced pluripotent stem cells” (The Scripps Research Institute, priority 2008, dated 2017)
“Also recorded” adds a separate entry of the source. Blank lines part the entries; values can stand above or below the compound they belong to.

Experiments:
[1] = test system: 129 MEFs transduced with OK (Oct4 and Klf4); assay: Screen for iPSC generation from OK-transduced 129 MEFs (ESC-like colony morphology, ALP staining); type: cell-based, mouse; conditions: in the absence of BIX
Procedure: Unmodified MEFs derived from E13-14 embryos of the 129 mice were used for the initial screen. MEFs were plated on Matrigel at 3.5×10^4 cells/well of a 6-well plate and transduced with OK (retroviral vectors expressing Oct4 and Klf4) alone. Within 14-21 days, treated cells were assessed for the appearance of colonies that had the characteristic embryonic stem cell (ESC), colony morphology and were positive for the pluripotency marker alkaline phosphatase (ALP). Such OK-transduced cells generated only a few small non-compact colonies, which were weakly positive for ALP expression. These colonies initially appeared within 21 days after viral transduction and were difficult to expand. Therefore, such assay system offered a clean background for the identification of small molecules having desirable reprogramming inducing activity. Using this system, compounds from a library of around 2000 known small molecules (see Experimental Procedures below) were screened and were identified as hits when they induced the appearance of ESC colonies that were strongly positive for ALP within 14-21 days after treatment. This image-based method provided a more accurate assessment of reprogramming as compared to homogenous reporter-based assay. BIX appeared to have the strongest effect with reproducible induction of more than 1-2 compact ESC-like colonies with high ALP expression. We observed that when MEFs were treated with BIX after OK viral transduction, compact colonies with strong ALP expression could be readily detected within approximately 14-21 days. These cells were also positive for Nanog, Oct4 and SSEA-1 expression. […] However, the reprogramming efficiency in MEFs transduced with OK and treated with BIX was still low, about 2 colonies/3.5×10^4 cells, in comparison to the four factor-induced reprogramming of MEFs or the OK/BIX NPC reprogramming (Shi, Y. et al., Cell Stem Cell, 2:525-528 (2008)). Therefore, we conducted a second screen using a similar protocol, but where BIX was added to the basal media after OK viral transduction. This provided a more permissive platform to identify new small molecules that could further improve reprogramming efficiency. More importantly, this second screen could facilitate discovery of small molecules that impact reprogramming in a more specific manner, for example by acting on signal transduction pathways rather than on histone or DNA modifying enzymes. In this second screen, we again assayed the library of around 2000 known small molecules (see Experimental Procedures), and confirmed two compounds that were able to act in a synergistic manner with BIX to improve reprogramming based on the criteria of the screen. […] Therefore, RG108 was not pursued further for this study. […]

[2] = test system: OG2 MEFs transduced with OK (Oct4 and Klf4); assay: iPSC generation from OK-transduced OG2 MEFs (GFP+ colonies), including second synergist screen with BIX; type: cell-based, mouse; conditions: for effect on reprogramming of OK transduced MEFs in the second screen: in the presence of 1 μM BIX, FIG. 3: 0.04 μM RG108, 2 μM BayK; for outcome in second synergist screen: 1 μM BIX plus individual compound at 0.5-2 μM, not further followed up
Procedure: Primary 129S2/SvPasCrlf (primary screen) or ROSA26^+/−/OG2^+/− (secondary screen) MEFs were plated onto Matrigel (1:50; BD Biosciences, Bedford, Mass.) coated dishes at a density of 3.5×10^4 cells per well of a 6-well plate. Twenty-four hours later, these cells were transduced overnight with defined retroviruses at 37° C., 5% CO2. Twelve to fourteen hours later, the media on the transduced cells was changed to mESC medium [Knockout DMEM, 10% ES-qualified FBS, 10% Knockout serum replacement, 1% Glutamax, 1% Non-essential amino acids, penicillin/streptomycin, 0.1 mM β-mercaptoethanol, 1% EmbryoMax ESC Qualified Nucleosides (Millipore, Temecula, Calif.), and 10^3 U/ml LIF (Millipore)] (all products were from Invitrogen, Carlsbad, Calif., except where mentioned). On that same day, individual small molecules from our known drug collection were added to the cells at a range between 0.5 and 2 μM. Compound treatment was continued for 10-14 days; the cells were fixed and stained on day 14-21 using a standard ALP detection kit (Millipore). For the second screen, 1 μM BIX was added to the mESC medium 1 day after transduction. Five days later, in addition to 1 μM BIX, individual small molecule from the known drug collection was added to each well, at a range between 0.5 and 2 μM. Mouse ESC media with defined small molecules was refreshed every three days until colonies with a similar morphology to mESCs were observed, which was usually between 14-21 days after transduction. […] Further characterization studies and repeats were carried either on primary 129S2/SvPasCrlf or ROSA26^+/−/OG2^+/− MEFs. When ROSA26^+/−/OG2^+/− MEFs were used, the iPSC colonies could also be identified through GFP expression, as a marker of Oct4 expression. Once iPSC colonies were identified, they were picked for expansion on MEF feeder cells in mESC medium.

mES R1 cells = assay: Proliferation assay; type: cell-based, mouse; conditions: 2 μM BayK, 1 μM BIX or both; 15, 24 and 48 hours; compared to DMSO, n=3
Procedure: mES R1 cells were plated onto gelatin-coated 6-well plates at a density of 2×10^5 cells/well in complete mES cell media. Upon cell attachment, app. 12 hours, the cells were treated either with DMSO, 1 μM BIX, 2 μM BayK, and a combination of both, in triplicate. At 15, 24 and 48 hours, the cells were detached using trypsin, and counted using a hemocytometer. Trypan blue (Sigma-Aldrich, St. Louis, Mo.) was used for dead cell exclusion.

[3] = test system: Sox2 expression in OG2 MEFs; assay: Assessment of SOX2 expression after compound treatment (semi-quantitative RT-PCR); type: cell-based, mouse; conditions: 2 μM BayK alone or with 1 μM BIX, 6 days
Procedure: OG2^+/−/ROSA26^+/− MEFs were plated onto 6-well plate at a density of 3.4×10^4 cells per well. On the following day, the cells were treated with DMSO, 1 μM BIX, 2 μM BayK, and a combination of both, in triplicate, for 6 days. The media was refreshed at day 3. RNA from each well was then isolated using the RNAeasy Mini Kit (Quiagen). Reverse transcription of the RNA was performed using the iScript™cDNA Synthesis Kit (BioRad, Hercules, Calif.). Amplification of endogenous Sox2 was done using primers previously published (Takahashi, K., Okita, K., Nakagawa, M., and Yamanaka, S. (2007). Induction of pluripotent stem cells from fibroblast cultures. Nat Protoc 2, 3081-3089; Takahashi, K., and Yamanaka, S. (2006). Induction of pluripotent stem cells from mouse embryonic and adult fibroblast cultures by defined factors. Cell 126, 663-676) with Platinum PCR SuperMix (Invitrogen) on a Mastercycler® ep gradient PCR machine (Eppendorf).

cellular reprogramming = assay: Enhancement of cellular reprogramming by nuclear receptor ligands; type: cell-based
Mouse fibroblasts = assay: Induction of pluripotency by incubation of fibroblasts with poly-Arg transcription factor proteins; type: cell-based; conditions: agent added during protein-induced reprogramming
Procedure: Mouse fibroblasts were grown in mESC medium supplemented with 8 μg/ml of either Oct4/Sox2/Klf4 or Oct4/Sox2/Klf4/Myc (all proteins comprising poly-Arg as described above) for 6-8 hours, washed, and incubated for 2-3 days in mESC media without the above-listed transcription factors. This (4-12 hours with, 1-3 days without) was repeated a number (1, 2, 3, 4, or more) of times and then the cells were cultures in mESC for two weeks.

non-iPS cells = assay: MEK inhibitor applied at late stage of reprogramming as selection: growth of non-iPS cells; type: cell-based, mouse; conditions: late stage of reprogramming (after Oct4-GFP activation)
Source text: (§1) Finally, we observed that the application of a specific small molecule inhibitor of MEK, PD0325901, to late stage of reprogramming (e.g. after Oct4-GFP activation) can serve as an excellent selection strategy for generating iPS cells. Due to the very low efficiency of reprogramming, iPS cells are typically selected out by utilizing reporter (e.g. Neo/Puro or GFP) that is under control of the regulatory elements of a pluripotency marker using genetically modified somatic cell lines, or manually picked out based on cell morphology. While the later method applicable to genetically unmodified cells is better suited for ultimate clinical application of iPS cells, it is a much more tedious and less reliable technique that typically requires picking and propagating over several passages many colonies, only a small fraction of which would become true iPS cells efficiently. This is partly because that large percentage of similarly looking colonies may be partially reprogrammed cells and/or simply transformed cells, which grow rapidly and may interfere with growth and reprogramming of iPS cells. Consequently, having an alternative selection strategy for genetically unmodified cells would be highly desirable.

iPS cells = assay: MEK inhibitor applied at late stage of reprogramming as selection: growth and stable reprogramming of iPS cells; type: cell-based, mouse; conditions: late stage of reprogramming (after Oct4-GFP activation)
Source text: as §1

SMILES: COC(=O)C1=C(C)NC(C)=C([N+](=O)[O-])C1c1ccccc1C(F)(F)F (stereo not shown) [BayK]
reprogramming activity on OK-transduced MEFs [1]: no observable reprogramming activity | reprogramming efficiency versus OK-transduced MEF control ([2]; compound alone, in the absence of BIX (data not shown)): did not increase reprogramming efficiency above OK-transduced MEF control | effect on reprogramming of OK transduced MEFs in the second screen [2]: strongest effect in the screen aside from known DNA/histone modifiers | proliferation of mES cells (cell number) (mES R1 cells): No significant difference; also recorded: does not lead to a change in proliferation | SOX2 expression [3]: does not induce SOX2 expression

cellular reprogramming (cellular reprogramming; at 3 μM): enhance cellular reprogramming
SMILES: C=C(c1ccc(C(=O)O)cc1)c1cc2c(cc1C)C(C)(C)CCC2(C)C [Bexarotene]

SMILES: Cc1c[nH]c(-c2cnc(NCCNc3ccc(C#N)cn3)nc2-c2ccc(Cl)cc2Cl)n1 [CHIR99021]
efficiency and speed of development of pluripotent cells (Mouse fibroblasts): improved efficiency and speed of development of pluripotent cells

cellular reprogramming (cellular reprogramming; at 5 μM): enhance cellular reprogramming
SMILES: CC(C)C[C@H](NC(=O)OCC1c2ccccc2-c2ccccc21)C(=O)O [Fmoc-Leu]

SMILES: CCN(CC)CCCCNc1ncc2cc(-c3cc(OC)cc(OC)c3)c(NC(=O)NC(C)(C)C)nc2n1 [PD173074]
outcome in second synergist screen [2]: primary hits

SMILES: O=C(NOC[C@H](O)CO)c1ccc(F)c(F)c1Nc1ccc(I)cc1F [PD0325901]
growth of non-iPS cells (non-iPS cells): inhibits growth of non-iPS cells | growth and stable reprogramming of iPS cells (iPS cells): effectively promotes growth and stable reprogramming of iPS cells | efficiency and speed of development of pluripotent cells (Mouse fibroblasts): improved efficiency and speed of development of pluripotent cells

SMILES: O=C(O)C(Cc1c[nH]c2ccccc12)N1C(=O)c2ccccc2C1=O (stereo not shown) [RG108]
effect on reprogramming of OK transduced MEFs in the second screen [2]: enhanced reprogramming of OK transduced MEFs in the presence of BIX

SMILES: NC(=O)c1ccc(-c2nc(-c3ccc4c(c3)OCO4)c(-c3ccccn3)[nH]2)cc1 [SB431542]
efficiency and speed of development of pluripotent cells (Mouse fibroblasts): improved efficiency and speed of development of pluripotent cells

SMILES: Cc1cc(Nc2ncc3c(n2)N(C)C(=O)N(c2cc(NC(=O)c4cccc(C(F)(F)F)c4)ccc2C)C3)n(C)n1 [pluripotin]
outcome in second synergist screen [2]: primary hits

SMILES: c1nc2nc(Nc3ccc(N4CCOCC4)cc3)nc(NC3CCCCC3)c2[nH]1 [reversine]
outcome in second synergist screen [2]: primary hits
